Test results reported in patent publication US6028197A, “Dibenzo[a,g]quinolizinium derivatives and the salts thereof” (Hanwha Corporation, priority 1998, dated 2000).

target: T1, sterol 14-reductase (Rattus norvegicus, UniProt A0ACM8Q6X4); assay: Inhibition of sterol 14-reductase in rat liver microsomes; type: biochemical; settings: microsomes; read-out: Enzyme Activity (relative in vitro activity for sterol 14-reductase, IC50 class)
T1 construct: microsome which was used as an enzyme source of sterol 14-reductase; from tissue; host or cells: liver microsomes of male Sprague-Dawley rats fed lovastatin and cholestyramine
T1 sequence (A0ACM8Q6X4 1-418): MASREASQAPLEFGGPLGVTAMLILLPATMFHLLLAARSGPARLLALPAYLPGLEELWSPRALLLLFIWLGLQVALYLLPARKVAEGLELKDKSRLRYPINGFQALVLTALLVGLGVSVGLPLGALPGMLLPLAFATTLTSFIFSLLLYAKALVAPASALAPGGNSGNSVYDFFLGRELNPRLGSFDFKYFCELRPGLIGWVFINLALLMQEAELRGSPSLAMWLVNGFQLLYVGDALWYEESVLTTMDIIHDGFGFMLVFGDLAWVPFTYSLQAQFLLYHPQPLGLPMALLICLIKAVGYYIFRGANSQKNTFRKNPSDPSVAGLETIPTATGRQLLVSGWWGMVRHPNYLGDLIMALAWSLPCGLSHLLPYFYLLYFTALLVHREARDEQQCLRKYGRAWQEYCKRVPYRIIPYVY
Description: 20 Male Sprague-Dawley rats weighing from 150 to 250 g have been fed for 7 days with a diet containing 0.1% (w/w) Lovastatin and 5% (w/w) Cholestyramine. The animals were fasted for 12 hours before excising liver tissues and then sacrificed by decapitation at midnight. An aqueous solution containing 0.25M of sucrose was injected into the hepatic portal vein to remove all the blood within the liver, and then, the liver was excised. The liver was homogenated with two volumes of buffer solution A (0.1M potassium phosphate, 1 mM reduced glutathione, 0.5 mM EDTA, 20% (v/v) glycerol, pH 7.4) by repeating pestles over 10 times and then, centrifuged with 900×g for 5 minutes to give a supernatant. The supernatant was centrifuged with 12,000×g for 20 minutes. The supernatant obtained was ultracentrifuged with 105,000×g for 90 minutes to give a microsome which was used as an enzyme source of sterol 14-reductase. Assay for sterol 14-reductase was carried out as follows:
60 mmol of 4,4-dimethyl-5α-cholesta-7,14-dien-3β-ol and 5,6-dihydrodibenzo-[a,g]quinolizinium salts (compound no. 2) dissolved in DMSO were added to an assay mixture (total volume 1.0 ml) containing 2 mg of the microsomal protein, 2 mM of NADPH and 25 mg of glucose plus 20 units of glucose oxidase with preincubations under nitrogen at 37° C. for 4 min. unless otherwise specified to establish anaerobic condition. Buffer A (0.1M potassium phosphate buffer, pH 7.4, including 1 mM reduced glutathione, 0.5 mM EDTA, and 20% (v/v) glycerol) used for incubation had been equilibrated with nitrogen, and nitrogen was exchanged for air in all sealed reaction flasks prior to the start of incubations. Incubation of the complete mixture was carried out anaerobically in sealed flasks for 10 min at 37° C. unless otherwise indicated. Incubations were terminated by the addition of 1 ml of ethanolic KOH followed by heating under reflux for 10 min. Sterols were extracted four times with 4 ml of petroleum ether, and the solvent was evaporated to dryness under a nitrogen stream. The resulting residue was dissolved in 200-500 μl of n-hexane for quantification by GLC at high sensitive attenuation. The activity of sterol 14-reductase was determined with the amount of the substrate wherein the double bonds of 14-carbon were reduced (for the amount reduced by 1 mg of the microsome protein for 1 minute).

Structure (SMILES) | IC50 [µM]
CCc1c2[n+](cc3c(OCc4ccc(C)c([N+](=O)[O-])c4)c(OC)ccc13)CCc1cc(OC)c(OC)cc1-2 [Compound No. 6, 5,6-dihydro-2,3-dimethoxybenzo[a]-13-ethyl-10-methoxy-9-(4-methyl-3-nitro)benzyloxybenzo[g]quinolizinium chloride] | < 1

same assay, conditions: read-out: Enzyme Activity (relative in vitro activity for sterol 14-reductase, IC50 class)

Structure (SMILES) | IC50 [µM]
CCc1c2[n+](cc3c(OCc4ccc(CS(=O)(=O)c5ccccc5)cc4)c(OC)ccc13)CCc1cc(OC)c(OC)cc1-2 [Compound No. 38, 5,6-dihydro-2,3-dimethoxybenzo[a]-13-ethyl-10-methoxy-9-[4-(phenylsulfonylmethyl)benzyloxy]benzo[g]-quinolizinium chloride] | 10 to 100
C=C(C)COc1c(OC)ccc2c(CC)c3[n+](cc12)CCc1cc(OC)c(OC)cc1-3 [Compound No. 41, 5,6-dihydro-2,3-dimethoxybenzo[a]-13-ethyl-10-methoxy-9-(2-methyl)propenoxybenzo[g]quinolizinium chloride] | > 100
CCOc1cc2c(cc1OCC)-c1c(CC)c3ccc(OC)c(OCc4c(F)c(F)c(F)c(F)c4F)c3c[n+]1CC2 [Compound No. 56, 5,6-dihydro-2,3-diethoxybenzo[a]-13-ethyl-10-methoxy-9-(2,3,4,5,6-pentafluoro)benzyloxybenzo[g]quinolizinium chloride] | < 1
CCc1c2[n+](cc3c(OCc4ccc(F)cc4C(F)(F)F)c(OC)ccc13)CCc1cc(OC)c(OC)cc1-2 [Compound No. 4, 5,6-dihydro-2,3-dimethoxybenzo[a]-13-ethyl-9-[4-fluoro-2-(trifluoromethyl)benzyloxy]-10-methoxybenzo[g]-quinolizinium chloride] | 10 to 100
CCc1c2[n+](cc3c(OCc4ccc(C(C)(C)C)cc4)c(OC)ccc13)CCc1cc(OC)c(OC)cc1-2 [Compound No. 69, 5,6-dihydro-2,3-dimethoxybenzo[a]-9-[4-(tert-butyl)-benzyloxy]-13-ethyl-10-methoxybenzo[g]quinolizinium bisulfate] | 10 to 100
CCOc1cc2c(cc1OCC)-c1c(CC)c3ccc(OCC)c(OCc4cccc(C(F)(F)F)c4)c3c[n+]1CC2 [Compound No. 63, 5,6-dihydro-2,3-diethoxybenzo[a]-10-ethoxy-13-ethyl-9-(3-trifluoromethyl)benzyloxyenzo[g]quinolizinium chloride] | 10 to 100
CCc1c2[n+](cc3c(OCc4cccc(C(F)(F)F)c4)c(OC)ccc13)CCc1cc3c(cc1-2)OCO3 [Compound No. 51, 5,6-dihydro-2,3-methylenedioxybenzo[a]-13-ethyl-10-methoxy-9-(3-trifluoromethyl)benzyloxybenzo[g]quinolizinium iodide] | 10 to 100
CCc1c2[n+](cc3c(OCc4ccccc4I)c(OC)ccc13)CCc1cc(OC)c(OC)cc1-2 [Compound No. 43, 5,6-dihydro-2,3-dimethoxybenzo[a]-13-ethyl-9-(2-iodo)benzyloxy-10-methoxybenzo[g]quinolizinium chloride] | 10 to 100
CCc1c2[n+](cc3c(OCc4ccc(C)cc4)c(OC)ccc13)CCc1cc(OC)c(OC)cc1-2 [Compound No. 31, 5,6-dihydro-2,3-dimethoxybenzo[a]-13-ethyl-10-methoxy-9-(4-methyl)benzyloxybenzo[g]quinolizinium chloride] | > 100
CCc1c2[n+](cc3c(OCc4cc(OC)c(OC)cc4[N+](=O)[O-])c(OC)ccc13)CCc1cc3c(cc1-2)OCO3 [Compound No. 48, 5,6-dihydro-2,3-methylenedioxybenzo[a]-9-(4,5-dimethoxy-2-nitro)benzyloxy-13-ethyl-10-methoxybenzo[g]-quinolizinium iodide] | < 1
CCc1c2[n+](cc3c(OCc4cccc(OC)c4)c(OC)ccc13)CCc1cc(OC)c(OC)cc1-2 [Compound No. 12, 5,6-dihydro-2,3-dimethoxybenzo[a]-13-ethyl-10-methoxy-9-(3-methoxy)benzyloxybenzo[g]quinolizinium chloride] | > 100
CCc1c2[n+](cc3c(OCc4c(F)c(F)c(F)c(F)c4F)c(OC)ccc13)CCc1cc(OC)c(OC)cc1-2 [Compound No. 70, 5,6-dihydro-2,3-dimethoxybenzo[a]-13-ethyl-10-methoxy-9-(2,3,4,5,6-pentafluoro)benzyloxybenzo[g]quinolizinium acetate] | 10 to 100

The remaining lines, values ahead:

IC50 [µM] | Structure (SMILES)
10 to 100 | CCc1c2[n+](cc3c(OCc4ccc(C(F)(F)F)cc4)c(OC)ccc13)CCc1cc3c(cc1-2)OCO3 [Compound No. 50, 5,6-dihydro-2,3-methylenedioxybenzo[a]-13-ethyl-10-methoxy-9-(4-trifluoromethyl)benzyloxybenzo[g]quinolizinium iodide]
< 1 | CCc1c2[n+](cc3c(OCc4ccc(-c5ccccc5)cc4)c(OC)ccc13)CCc1cc(OC)c(OC)cc1-2 [Compound No. 16, 5,6-dihydro-2,3-dimethoxybenzo[a]-13-ethyl-10-methoxy-9-(4-phenyl)benzyloxybenzo[g]quinolizinium chloride]
10 to 100 | CCc1c2[n+](cc3c(OCc4cccc(Cl)c4)c(OC)ccc13)CCc1cc(OC)c(OC)cc1-2 [Compound No. 18, 5,6-dihydro-2,3-dimethoxybenzo[a]-9-(3-chloro)-benzyloxy-13-ethyl-10-methoxybenzo[g]quinolizinium chloride]
10 to 100 | CCOc1cc2c(cc1OCC)-c1c(CC)c3ccc(OC)c(OCc4ccc(Cl)nc4)c3c[n+]1CC2 [Compound No. 58, 5,6-dihydro-2,3-diethoxybenzo[a]-9-(6-chloropyridinyl-3-yl)methoxy-13-ethyl-10-methoxybenzo [g]-quinolizinium chloride]
10 to 100 | CCc1c2[n+](cc3c(OCc4c(F)cccc4Cl)c(OC)ccc13)CCc1cc(OC)c(OC)cc1-2 [Compound No. 23, 5,6-dihydro-2,3-dimethoxybenzo[a]-9-(2-chloro-6-fluoro)benzyloxy-13-ethyl-10-methoxybenzo[g]quinolizinium chloride]
> 100 | CCc1c2[n+](cc3c(OCc4cc(C)ccc4C)c(OC)ccc13)CCc1cc(OC)c(OC)cc1-2 [Compound No. 15, 5,6-dihydro-2,3-dimethoxybenzo[a]-9-(2,5-dimethyl)benzyloxy-13-ethyl-10-methoxybenzo[g]quinolizinium chloride]
10 to 100 | CCc1c2[n+](cc3c(OCc4ccccc4C(F)(F)F)c(OC)ccc13)CCc1cc(OC)c(OC)cc1-2 [Compound No. 20, 5,6-dihydro-2,3-dimethoxybenzo[a]-13-ethyl-10-methoxy-9-(2-trifluoromethyl)benzyloxybenzo[g]quinolizinium chloride]
> 100 | CCc1c2[n+](cc3c(OCc4cc(C)ccc4[N+](=O)[O-])c(OC)ccc13)CCc1cc(OC)c(OC)cc1-2 [Compound No. 25, 5,6-dihydro-2,3-dimethoxybenzo[a]-13-ethyl-10-methoxy-9-(5-methyl-2-nitro)benzyloxybenzo[g]quinolizinium chloride]
10 to 100 | CCOc1cc2c(cc1OCC)-c1c(CC)c3ccc(OCC)c(OCc4c(F)c(F)c(C(F)(F)F)c(F)c4F)c3c[n+]1CC2 [Compound No. 64, 5,6-dihydro-2,3-diethoxybenzo[a]-10-ethoxy-13-ethyl-9-(2,3,5,6-tetrafluoro-4-trifluoromethyl)-benzyloxy benzo[g]quinolizinium chloride]
> 100 | C=Cc1ccc(COc2c(OC)ccc3c(CC)c4[n+](cc23)CCc2cc(OC)c(OC)cc2-4)cc1 [Compound No. 8, 5,6-dihydro-2,3-dimethoxybenzo[a]-13-ethyl-10-methoxy-9-(4-vinyl)benzyloxybenzo[g]quinolizinium chloride]
< 1 | CCOc1cc2c(cc1OCC)-c1c(CC)c3ccc(OC)c(OCc4ccc(C(C)(C)C)cc4)c3c[n+]1CC2 [Compound No. 55, 5,6-dihydro-2,3-diethoxybenzo[a]-9-[4-(tert-butyl)benzyloxy]-13-ethyl-10-methoxybenzo[g]quinolizinium chloride]
> 100 | CCc1c2[n+](cc3c(OCc4cc5c(cc4Cl)OCO5)c(OC)ccc13)CCc1cc(OC)c(OC)cc1-2 [Compound No. 40, 5,6-dihydro-2,3-dimethoxybenzo[a]-9-(6-chloro)-piperonyloxy-13-ethyl-10-methoxybenzo[g]quinolizinium chloride]
10 to 100 | CCc1c2[n+](cc3c(OCc4c(F)c(F)c(C(F)(F)F)c(F)c4F)c(OC)ccc13)CCc1cc3c(cc1-2)OCO3 [Compound No. 52, 5,6-dihydro-2,3-methylenedioxybenzo[a]-13-ethyl-10-methoxy-9-(2,3,5,6-tetrafluoro-4-trifluoromethyl)benzyloxybenzo[g]quinolizinium iodide]
< 1 | CCCCCCCCCCCCOc1c(OCC)ccc2c(CC)c3[n+](cc12)CCc1cc(OCC)c(OCC)cc1-3 [Compound No. 61, 5,6-dihydro-2,3-diethoxybenzo[a]-9-dodecoxy-10-ethoxy-13-ethylbenzo[g]quinolizinium chloride]
10 to 100 | CCc1c2[n+](cc3c(OCc4cc([N+](=O)[O-])ccc4OC)c(OC)ccc13)CCc1cc(OC)c(OC)cc1-2 [Compound No. 7, 5,6-dihydro-2,3-dimethoxybenzo[a]-13-ethyl-10-methoxy-9-(2-methoxy-5-nitro)benzyloxybenzo[g]quinolizinium chloride]
10 to 100 | CCc1c2[n+](cc3c(OCc4ccc(Cl)nc4)c(OC)ccc13)CCc1cc3c(cc1-2)OCO3 [Compound No. 54, 5,6-dihydro-2,3-methylenedioxybenzo[a]-9-(6-chloropyridinyl-3-yl)methoxy-13-ethyl-10-methoxybenzo[g]quinolizinium iodide]
